Laboratory results published in PubChem BioAssay (NCI).
Where “and” joins values, the source holds several entries; their conditions need not be identical. Identical values can stand only once.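 Protocol summary: plate cells (96-well), add compound at 5 concentrations, incubate 48 h, interpolate endpoints linearly. At the GI50, growth is halved. TGI marks complete inhibition of growth.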

Experiments:
Test in all cases: NCI tumour cell line growth inhibition, 48 h
[1] = tested on: SK-OV-3 ovarian
[2] = tested on: UACC-257 melanoma
[3] = tested on: SK-MEL-2 melanoma
[4] = tested on: MDA-MB-231 breast
[5] = tested on: SNB-19 CNS
[6] = tested on: MDA-MB-435
[7] = tested on: SNB-75 CNS
[8] = tested on: SW-620 colon
[9] = tested on: COLO 205 colon
[10] = tested on: T-47D breast
[11] = tested on: MOLT-4 leukemia
[12] = tested on: MALME-3M melanoma
[13] = tested on: 786-0 renal
[14] = tested on: OVCAR-8 ovarian
[15] = tested on: SR leukemia
[16] = tested on: SK-MEL-5 melanoma

SMILES | TGI [1] | TGI [2] [µM] | TGI [3] [µM] | TGI [4] [µM] | TGI [5] [µM] | TGI [6] [µM] | TGI [7] [µM] | TGI [8] [µM] | TGI [9] | TGI [10] [µM] | TGI [11] [µM] | TGI [12] [µM] | TGI [13] [µM] | TGI [14] [µM] | TGI [15] [µM] | TGI [16] [µM] | GI50 [5] [µM] | GI50 [8] [µM] | GI50 [12]
O=[N+]([O-])/C(C(Cl)=C(Cl)Cl)=C(\NCc1ccccc1)Sc1ccccc1 | > 100 µM | > 100 | 84.7 | > 100 | > 100 | 41.3 | 63.3 | 42.6 | 33.2 µM | 71.7 | > 100 | 33.3 | > 100 | 32.8 |  |  |  |  | 
NC(N)=N/N=C/c1c(Cl)nc2n1CCS2 | > 100 µM | > 100 | > 100 |  | > 100 | > 100 | > 100 | > 100 | > 100 µM | > 100 | > 100 | > 100 | > 100 | > 100 | > 100 |  |  |  | 
CCN1C(c2ccccc2)=CC(c2ccccc2)(C(Cl)(Cl)Cl)C=C1c1ccccc1 |  | > 100 |  | > 100 | > 100 | 9.51 | > 100 | > 100 |  | 2.29 | 61.8 | 24 | > 100 | > 100 |  | 4.46 |  |  | 
O=C(O)C(Cc1ccc(O)cc1)N=Cc1nc(-c2ccccc2)oc1O (stereo not drawn) | > 100 µM | > 100 | > 100 |  | > 100 |  | > 100 | > 100 | > 100 µM |  |  | > 100 | > 100 | > 100 |  | > 100 |  |  | 
c1ccc(Nc2nnc(-c3ccccc3Nc3ccccc3-c3nnc(Nc4ccccc4)s3)s2)cc1 |  | > 100 | > 100 |  | > 100 | > 100 | > 100 | > 100 | > 100 µM |  | > 100 | > 100 | > 100 | > 100 |  | > 100 |  |  | 
CC1CCC2C(C(=O)O[C@H]3C4C=CO[C@@H](OC5OC(CO)C(O)C(O)C5O)C4[C@@]4(CO)O[C@@H]34)=CO[C@@H](OC3OC(CO)C(O)C(O)C3O)C12 (stereo partly drawn) | > 10 µM | > 10 | > 10 | > 10 | > 10 | > 10 | > 10 | > 10 | > 10 µM | > 10 | > 10 | > 10 | > 10 | > 10 |  | > 10 |  |  | 
CC(=O)/C=C1/C(=O)C(CC(C)C)=C1CC(C)C | > 100 µM | > 100 | > 100 | > 100 | > 100 | > 100 | > 100 | > 100 | > 100 µM | > 100 | > 100 | > 100 | > 100 | > 100 |  | > 100 |  |  | 
COc1cc(Br)c(/C=N/N=C(\N)NO)cc1OC | 68.8 µM | 51 | > 100 |  | > 100 |  | 65.9 | > 100 | 25.6 µM |  | > 100 | 60.2 | 92.8 | 76 | > 100 | 21.2 |  |  | 
Nc1ccc(C(=O)NN2C(=O)C(Cl)C2c2ccc(O)cc2)cc1 (stereo not drawn) | 46.1 µM | > 100 | 31.4 |  | 31.4 |  | 70.4 | 44.7 | 33.4 µM |  | 37.8 | 32.9 | 31.3 | 68.8 |  | 31 |  |  | 
CC1(C)COC(c2cccc(C(=O)c3ccccc3)c2)=N1 | > 100 µM | > 100 | > 100 | > 100 | > 100 |  |  | > 100 | > 100 µM | > 100 | 75.9 | > 100 | > 100 | > 100 | > 100 | 32.1 |  |  | 
CCCCCCCCCCCC(=O)OCC(O)CO (stereo not drawn) | > 100 µM | > 100 | > 100 | > 100 | > 100 | > 100 | > 100 | > 100 | > 100 µM | > 100 | > 100 |  | > 100 | > 100 |  | > 100 |  |  | 
O=C1CSc2ccnc(=O)n21 | > 100 µM | > 100 |  |  | > 100 | > 100 | > 100 | > 100 | > 100 µM |  | > 100 | > 100 | > 100 | > 100 | > 100 | > 100 |  |  | 
COc1ccccc1NC(=S)Nc1ccccn1 | > 100 µM | > 100 | > 100 | > 100 | > 100 | > 100 | > 100 | > 100 | > 100 µM |  | > 100 | > 100 | > 100 | > 100 | > 100 | > 100 |  |  | 
C=Cc1c(-c2ccccc2)cnc2[nH]c3ccccc3c12 | > 50 µM | > 50 | > 50 |  | > 50 |  | 46 | > 50 | > 50 µM |  | > 50 | > 50 | > 50 | > 50 | > 50 | > 50 |  |  | 
CCOc1ccc(NC(=O)/C=C/c2ccco2)cc1 | > 100 µM | > 100 | > 100 | > 100 | > 100 | 22 | > 100 | > 100 | > 100 µM |  | > 100 | > 100 | > 100 | > 100 | > 100 | > 100 |  |  | 
CC(C)(C)C1CC[C@H](O)[C@H]([C@@H](O)CC2CC(=O)N(c3ccccc3)C(=O)C2)C1 (stereo partly drawn) |  | > 100 |  | > 100 | > 100 | > 100 | > 100 | > 100 |  |  | > 100 | > 100 | > 100 | > 100 | > 100 | > 100 |  |  | 
COc1cc2c(c(OC)c1OC)[C@@H]1CCCCC[C@@H]1CCC2=O | > 100 µM | > 100 | > 100 |  | > 100 |  | > 100 | > 100 | > 77.3 µM |  | > 64.7 | > 100 | > 100 | > 100 | > 59.2 | > 100 |  |  | 

SMILES | TGI [1] | TGI [2] [µM] | TGI [3] [µM] | TGI [4] [µM] | TGI [5] [µM] | TGI [6] [µM] | TGI [7] [µM] | TGI [8] [µM] | TGI [9] | TGI [10] [µM] | TGI [11] [µM] | TGI [12] [µM] | TGI [13] [µM] | TGI [14] [µM] | TGI [15] [µM] | TGI [16] [µM] | GI50 [5] [µM] | GI50 [8] [µM] | GI50 [12]
COc1ccc(/C=C2\CC3C4CC=C5C[C@@H](N6CCCC6)CC[C@]5(C)C4CC[C@]3(C)[C@H]2O)cc1OC (stereo partly drawn) | 17.5 µM | 15.4 | 14.3 | 15.1 | 19.1 | 14.3 | 22.9 | 50 | 15.8 µM | 26.6 | 38.3 | 16.7 | 11.1 | 23.8 |  | 14.3 |  |  | 
CC(=O)NC1=C(NCCO)C(=O)c2ccccc2C1=O | > 50 µM | > 50 | > 50 |  | > 50 |  | > 50 | > 50 | > 50 µM |  | > 50 | 46 | > 50 | > 50 | > 50 | > 50 |  |  | 
O=C(O)CNc1ncc2c(n1)-c1ccccc1OC2 | > 100 µM | > 100 | > 100 | > 100 | > 100 | > 100 | > 100 | > 100 | > 100 µM |  | > 100 | > 100 | > 100 | > 100 | > 100 | > 100 |  |  | 
COc1cccc(C2c3cc4c(cc3OC(N3CCCC3)C2c2ccccc2)OCO4)c1O (stereo not drawn) |  | 24.4 | 27.9 |  | 27.7 | 22.8 |  | 25.4 | 27.3 µM | > 100 | 21.5 |  | 27.8 | 61.2 | 32.7 | 22.6 |  |  | 
COc1ccccc1OC/C(N=Cc1cccnc1)=N/NC(=O)c1ccncc1 | > 100 µM | > 100 | > 100 | > 100 | > 100 | > 100 | > 100 | > 100 | > 100 µM | > 100 | > 100 | > 100 | > 100 | > 100 |  |  |  |  | 
Cc1cc(O)c(C(O)c2ccccn2)cc1O (stereo not drawn) |  |  |  | 33.3 | > 100 | 35.3 | 31.9 | 41.1 | 23.4 µM |  | > 100 | 40.1 | 34.5 | 40.8 | 10.2 | 38.4 |  |  | 
CSCCCNC(=O)c1csc(-c2csc(CCNC(=O)CNC(=O)OC(C)(C)C)n2)n1 | > 100 µM | > 100 | > 100 | > 100 | > 100 | > 100 | > 100 | > 100 | > 100 µM |  | > 100 | > 100 | > 100 | > 100 | > 100 | > 100 |  |  | 
O=C1/C(=C/c2ccc([N+](=O)[O-])cc2)Oc2cc(O)ccc21 | 71.6 µM | > 100 |  | 73.9 | > 100 | > 100 | > 100 | > 100 |  | > 100 | 44.4 |  | 70.6 | > 100 | 46.1 | 48 |  |  | 
COc1cc(CNc2ccc(C)cc2)cc(OC)c1OC | 0.825 µM and 1.3 µM | > 100 | > 100 |  | > 100 |  | > 100 |  | 0.385 µM and 1.11 µM |  | > 100 | > 100 | > 44.9 |  | > 100 | > 100 | 0.959 | 0.203 | 0.276 µM and 0.658 µM
CCCCCCCCC#CCCCCCCC(F)C(=O)O (stereo not drawn) | > 100 µM | > 100 | > 100 |  | > 100 | > 100 | > 100 | > 100 | > 100 µM | > 100 | > 100 | > 100 | > 100 | > 100 | > 100 | > 100 |  |  | 
CC(C)CC1C(=O)OC(C)(C)OC1=O | > 100 µM | > 100 | > 100 | > 100 | > 100 | > 100 | > 100 | > 100 | > 100 µM | > 100 | > 100 |  | > 100 | > 100 |  | > 100 |  |  | 
COC(=O)C1=CCC[C@H]2[C@@]1(COC(C)=O)CC[C@@H](C)[C@]2(C)CC(=O)c1ccoc1 | > 50 µM | > 50 | > 50 | > 50 | > 50 | > 50 | > 50 | > 50 | 27.3 µM | 35.7 | 31.8 |  | > 50 | > 50 |  | 16.9 |  |  | 
c1ccc(CSCCC(SCc2ccccc2)SCc2ccccc2)cc1 | > 10 µM | > 10 | > 10 | > 10 | > 10 |  | > 10 | > 10 | > 10 µM | > 10 | > 10 | > 10 | > 10 | > 10 | > 10 | > 10 |  |  | 
COc1cc(C(C)c2cc3c(cc2OCCCCCOc2cc4c(cc2C(C)c2cc(OC)c(OC)c(OC)c2)OCO4)OCO3)cc(OC)c1OC (stereo not drawn) |  | > 100 | > 100 |  | > 100 |  | > 100 | > 100 |  |  | > 100 | > 100 | > 100 | > 100 | > 100 | > 100 |  |  | 
O=C(CC(=O)n1nc(-c2ccccc2)c(N=Nc2ccc([N+](=O)[O-])cc2)c1-c1ccccc1)Nc1ccc(Cl)cc1 | 42.3 µM | > 100 | > 100 |  | 81.6 |  | > 100 | > 100 | 34.9 µM |  | > 100 | > 100 | > 100 | > 100 | > 100 | 22.3 |  |  | 
COc1c(O)ccc(/C=N/NC(=S)NCOCCOC(C)=O)c1OC | > 100 µM | > 100 | > 100 |  | > 100 |  | > 100 | > 100 | > 100 µM |  |  | > 100 | > 100 | > 100 |  | > 100 |  |  | 
